Measured values from ChEMBL document CHEMBL1201862, “PubChem BioAssay data set” (2004).
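Step 1: Grow cells in 96-well plates. Step 2: Expose to compound for 48 hours at 5 concentrations. Step 3: Interpolate endpoints linearly; if unreached, use highest concentration. GI50 marks 50% less growth.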 The source made the active and inactive calls. Rule as the data show it: active = GI50 up to about 1.1 µM and inactive = higher. Positions of bridges follow the written chain, without caps; N, C: chain ends. Non-standard residues stand in square brackets, D forms with d. Residues, ends and D or L forms follow the SMILES beside them. *: point of attachment. PhAc = O=C(Cc1ccccc1)*

Columns and labels:
Assay in all cases: inhibition of tumour cell growth, NCI panel, 48 h
M14 = system: M14
OVCAR-4 = system: OVCAR-4
K562 = system: K562
KM12 = system: KM12
HOP-62 = system: HOP-62
MCF7 = system: MCF7
CCRF-CEM = system: CCRF-CEM
TK-10 = system: TK-10
SK-MEL-28 = system: SK-MEL-28
UACC-62 = system: UACC-62
NCI-H460 = system: NCI-H460
HCC 2998 = system: HCC 2998
SF-268 = system: SF-268
HT-29 = system: HT-29
COLO 205 = system: COLO 205
NCI-H23 = system: NCI-H23
HCT-116 = system: HCT-116
Hs-578T = system: Hs-578T
BT-549 = system: BT-549

Row | Compound | GI50 (M14) | GI50 (OVCAR-4) | GI50 (K562) | GI50 (KM12) | GI50 (HOP-62) | GI50 (MCF7) | GI50 (CCRF-CEM) | GI50 (TK-10) | GI50 (SK-MEL-28) | GI50 (UACC-62) | GI50 (NCI-H460) | GI50 (HCC 2998) | GI50 (SF-268) | GI50 (HT-29) | GI50 (COLO 205) | GI50 (NCI-H23) | GI50 (HCT-116) | GI50 (Hs-578T) | GI50 (BT-549)
1 | Sc1nnc(COc2ccc(Cl)cc2)n1-c1ccccc1 | > 100 µM (inactive) | > 100 µM (inactive) | 95.7 µM (inactive) | > 100 µM (inactive) | > 100 µM (inactive) | > 100 µM (inactive) | 74.1 µM (inactive) | > 100 µM (inactive) | > 100 µM (inactive) | > 100 µM (inactive) | > 100 µM (inactive) | > 100 µM (inactive) | > 100 µM (inactive) | > 100 µM (inactive) | 88.1 µM (inactive) | > 100 µM (inactive) | 46.1 µM (inactive) | – | –
2 | O=C1Nc2ccccc2/C1=N/NC(=S)Nc1cccc(Cl)c1 | 10.4 µM (inactive) | 4.33 µM (inactive) | 4.7 µM (inactive) | 7.26 µM (inactive) | 10.9 µM (inactive) | 8.43 µM (inactive) | 2.75 µM (inactive) | 31.4 µM (inactive) | 35.2 µM (inactive) | 8.41 µM (inactive) | 5.52 µM (inactive) | 66.4 µM (inactive) | 4.53 µM (inactive) | 10.1 µM (inactive) | 8.93 µM (inactive) | 6.97 µM (inactive) | 3.49 µM (inactive) | 33.4 µM (inactive) | –
3 | O=C(COc1ccc(OCC(=O)N2C(=O)CC(=O)N(c3ccccc3)C2=S)cc1)N1C(=O)CC(=O)N(c2ccccc2)C1=S | 89.5 µM (inactive) | 44.4 µM (inactive) | 52.1 µM (inactive) | 27.4 µM (inactive) | – | 45.9 µM (inactive) | – | > 100 µM (inactive) | 87.3 µM (inactive) | 32.2 µM (inactive) | 40.9 µM (inactive) | 97.3 µM (inactive) | 43.2 µM (inactive) | 61.2 µM (inactive) | 61.2 µM (inactive) | 64.4 µM (inactive) | 22.5 µM (inactive) | – | 78.7 µM (inactive)
4 | COc1cc2c(c(OC)c1OC)-c1ccc(SC)cc1C(O)CC2 (centres undefined) | < 0.01 µM (active) | 1.94 µM (inactive) | < 0.01 µM (active) | < 0.01 µM (active) | – | < 0.01 µM (active) | < 0.01 µM (active) | 41 µM (inactive) | 55.6 µM (inactive) | < 0.01 µM (active) | < 0.01 µM (active) | < 0.01 µM (active) | < 0.01 µM (active) | – | < 0.01 µM (active) | < 0.01 µM (active) | < 0.01 µM (active) | – | –
5 | CCOCCOC(=O)C1CCC(=O)N1CN(C(C)=O)c1cc(OC)ccc1OC (centres undefined) | > 100 µM (inactive) | > 100 µM (inactive) | > 100 µM (inactive) | > 100 µM (inactive) | > 100 µM (inactive) | > 100 µM (inactive) | – | > 100 µM (inactive) | > 100 µM (inactive) | > 100 µM (inactive) | > 100 µM (inactive) | – | > 100 µM (inactive) | > 100 µM (inactive) | > 100 µM (inactive) | > 100 µM (inactive) | > 100 µM (inactive) | > 100 µM (inactive) | –
6 | C=C1c2c(n(S(=O)(=O)c3ccccc3)c3ccccc23)[C@@]2(C(=O)OC)CC3C=CC2N1C3 | > 100 µM (inactive) | > 100 µM (inactive) | > 100 µM (inactive) | > 100 µM (inactive) | > 100 µM (inactive) | > 100 µM (inactive) | > 100 µM (inactive) | > 100 µM (inactive) | > 100 µM (inactive) | > 100 µM (inactive) | > 100 µM (inactive) | > 100 µM (inactive) | > 100 µM (inactive) | > 100 µM (inactive) | > 100 µM (inactive) | > 100 µM (inactive) | > 100 µM (inactive) | – | > 100 µM (inactive)
7 | CC1=NNC(=O)C1C1CC(c2c[nH]c3ccccc23)=NNC1=O (centres undefined) | > 100 µM (inactive) | – | > 100 µM (inactive) | 62.7 µM (inactive) | > 100 µM (inactive) | – | > 100 µM (inactive) | > 100 µM (inactive) | > 100 µM (inactive) | > 100 µM (inactive) | > 100 µM (inactive) | – | > 100 µM (inactive) | > 100 µM (inactive) | > 100 µM (inactive) | > 100 µM (inactive) | > 100 µM (inactive) | > 100 µM (inactive) | > 100 µM (inactive)
8 | COc1ccc2nc(-c3ccc(OC(=O)N(C)C)cc3)cn2c1 | 75.7 µM (inactive) | > 100 µM (inactive) | 39 µM (inactive) | 86.1 µM (inactive) | > 100 µM (inactive) | > 100 µM (inactive) | 67.5 µM (inactive) | > 100 µM (inactive) | > 100 µM (inactive) | > 100 µM (inactive) | 36 µM (inactive) | > 100 µM (inactive) | > 100 µM (inactive) | 27.8 µM (inactive) | 41.4 µM (inactive) | > 100 µM (inactive) | > 100 µM (inactive) | > 100 µM (inactive) | –
9 | CC1=C/C(=N\NS(=O)(=O)c2ccc([N+](=O)[O-])cc2)CC(C)(C)C1 | > 100 µM (inactive) | – | 62.1 µM (inactive) | 76.2 µM (inactive) | > 100 µM (inactive) | > 100 µM (inactive) | > 100 µM (inactive) | > 100 µM (inactive) | > 100 µM (inactive) | 50.2 µM (inactive) | 51.6 µM (inactive) | > 100 µM (inactive) | 83.6 µM (inactive) | – | > 100 µM (inactive) | 92.9 µM (inactive) | 84.3 µM (inactive) | – | –
10 | COc1ccc(Cc2cc3c(cc2OCC(=O)O)OCO3)cc1 | > 100 µM (inactive) | > 100 µM (inactive) | > 100 µM (inactive) | > 100 µM (inactive) | > 100 µM (inactive) | – | > 100 µM (inactive) | > 100 µM (inactive) | > 100 µM (inactive) | > 100 µM (inactive) | > 100 µM (inactive) | > 100 µM (inactive) | > 100 µM (inactive) | > 100 µM (inactive) | > 100 µM (inactive) | > 100 µM (inactive) | > 100 µM (inactive) | – | –
11 | O=c1oc2ccccc2c(O)c1C1c2c(c3ccccc3oc2=O)Oc2c1c(=O)oc1ccccc21 | – | 32.9 µM (inactive) | 33.7 µM (inactive) | 26.4 µM (inactive) | 64.4 µM (inactive) | – | 36.5 µM (inactive) | 51.9 µM (inactive) | 30.8 µM (inactive) | 21.4 µM (inactive) | 17.1 µM (inactive) | 18.7 µM (inactive) | 29.4 µM (inactive) | 30.2 µM (inactive) | 42.3 µM (inactive) | 31.3 µM (inactive) | 36.6 µM (inactive) | 46.8 µM (inactive) | 27.5 µM (inactive)
12 | O=C(Cc1ccccc1)N[C@@H]1COC(=O)[C@@H]2CCCN2C(=O)[C@@H]2CCCN2C1=O (PhAc-[dS]-Pro-Pro; ester 1-C) | > 100 µM (inactive) | > 100 µM (inactive) | – | > 100 µM (inactive) | > 100 µM (inactive) | > 100 µM (inactive) | > 100 µM (inactive) | > 100 µM (inactive) | > 100 µM (inactive) | > 100 µM (inactive) | > 100 µM (inactive) | > 100 µM (inactive) | > 100 µM (inactive) | > 100 µM (inactive) | > 100 µM (inactive) | > 100 µM (inactive) | > 100 µM (inactive) | > 100 µM (inactive) | –
